pIC50: −log10 of the molar value.
What follows are molecules tested against T1, Sialidase (Clostridium perfringens, UniProt P10481) (assay: Inhibition of Clostridium perfringenes neuraminidase activity using 4-methylumbelliferyl-1-alpha-D-N-acetylneuramic acid sodium salt hydrate as substrate by fluorescence based assay). Conditions: read-out: IC50.
T1 sequence (P10481 whole entry): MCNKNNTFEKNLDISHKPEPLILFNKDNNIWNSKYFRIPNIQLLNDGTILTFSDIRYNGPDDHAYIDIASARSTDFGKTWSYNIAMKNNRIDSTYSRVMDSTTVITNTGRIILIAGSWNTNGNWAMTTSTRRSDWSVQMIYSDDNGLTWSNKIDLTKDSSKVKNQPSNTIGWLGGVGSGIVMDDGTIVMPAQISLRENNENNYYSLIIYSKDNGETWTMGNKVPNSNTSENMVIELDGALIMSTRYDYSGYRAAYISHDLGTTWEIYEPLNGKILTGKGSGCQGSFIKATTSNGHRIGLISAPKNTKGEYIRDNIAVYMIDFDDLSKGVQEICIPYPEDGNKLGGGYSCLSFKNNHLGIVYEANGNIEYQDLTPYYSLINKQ
Molecule `CCOC(=O)C1=C[C@@H](OC(CC)CC)[C@H](NC(C)=O)[C@@H](N)C1` [OSELTAMIVIR] has a pIC50 of 4.21.
Molecule `CCC(CC)[C@H](NC(C)=O)[C@@H]1[C@H](O)[C@@H](C(=O)O)C[C@H]1NC(=N)N` [PERAMIVIR ANHYDROUS] has a pIC50 of 4.40.

Same assay, conditions: read-out: pIC50 (converted)
In the case of `CCCN[C@@H]1C=C(C(=O)O)C[C@H](N)[C@H]1NC(C)=O`, the IC50 was 200 nM.
Molecule `CCCN(CC)[C@@H]1C=C(C(=O)O)C[C@H](N)[C@H]1NC(C)=O` has an IC50 of 89.9 nM.
For `CCC(CC)N(C)[C@@H]1C=C(C(=O)O)C[C@H](N)[C@H]1NC(C)=O`, the IC50 was 6 nM.
For `CCC(=O)N[C@@H]1C=C(C(=O)O)C[C@H](N)[C@H]1NC(C)=O`, the IC50 was 2700 nM.
Molecule `CCCCN(CC)[C@@H]1C=C(C(=O)O)C[C@H](N)[C@H]1NC(C)=O` has an IC50 of 84.9 nM.
Molecule `CC(=O)N[C@H]1[C@H](N(C)CCc2ccccc2)C=C(C(=O)O)C[C@@H]1N` has an IC50 of 100 nM.
Work on `CC[C@@H](C)O[C@@H]1C=C(C(=O)O)C[C@H](NC(=N)N)[C@H]1NC(C)=O` yielded an IC50 of 0.5 nM.
Work on `CC(=O)N[C@@H]1[C@@H](N)CC(C(=O)O)=C[C@H]1Oc1ccccc1` yielded an IC50 of 530 nM.
`CCC(CC)O[C@@H]1C(F)=C(C(=O)O)C[C@H](N)[C@H]1NC(C)=O` was tested, and the IC50 was 3 nM.
In the case of `CCCCCCC[C@H](CC)O[C@@H]1C=C(C(=O)O)C[C@H](N)[C@H]1NC(C)=O`, the IC50 was 1 nM.
`CC(=O)N[C@@H]1[C@@H](N)CC(C(=O)O)=C[C@H]1OCc1ccccc1` showed an IC50 of 619 nM.
Work on `CCCO[C@@H]1C=C(C(=O)O)C[C@H](N=C(N)N)[C@H]1NC(C)=O` yielded an IC50 of 2 nM.
For `C=CC[C@H](CC)O[C@@H]1C=C(C(=O)O)C[C@H](N)[C@H]1NC(C)=O`, the IC50 was 1 nM.
`CC(=O)N[C@H]1[C@H](O)C=C(C(=O)O)C[C@@H]1N=C(N)N` gave an IC50 of 100 nM.
For `CC[C@@H](CCC1CCCCC1)O[C@@H]1C=C(C(=O)O)C[C@H](N)[C@H]1NC(C)=O`, the IC50 was 1 nM.
In the case of `CC(=O)N[C@@H]1[C@@H](N)CC(C(=O)O)=C[C@H]1NC(=O)C(C)C`, the IC50 was 6400 nM.
In the case of `CC(=O)N[C@H]1[C@H](N(C)C2CCCCC2)C=C(C(=O)O)C[C@@H]1N`, the IC50 was 200 nM.
`CCC(CC)N[C@@H]1C=C(C(=O)O)C[C@H](N)[C@H]1NC(C)=O` was tested, and the IC50 was 11 nM.
`CC[C@H](C)O[C@@H]1C=C(C(=O)O)C[C@H](N)[C@H]1NC(C)=O` showed an IC50 of 10 nM.
`CC[C@H](C)O[C@@H]1C=C(C(=O)O)C[C@H](NC(=N)N)[C@H]1NC(C)=O` showed an IC50 of 0.5 nM.
For `CC(=O)N[C@@H]1[C@@H](N)CC(C(=O)O)=C[C@H]1OC(C)C`, the IC50 was 180 nM.
`CCC(CC)C(=O)N[C@@H]1C=C(C(=O)O)C[C@H](N)[C@H]1NC(C)=O` was tested, and the IC50 was 4000 nM.
Molecule `CCCN(CCC)[C@@H]1C=C(C(=O)O)C[C@H](N)[C@H]1NC(C)=O` has an IC50 of 12 nM.
Work on `CCCCN(C)[C@@H]1C=C(C(=O)O)C[C@H](N)[C@H]1NC(C)=O` yielded an IC50 of 180 nM.
`CC[C@@H](CC1CCCCC1)O[C@@H]1C=C(C(=O)O)C[C@H](N)[C@H]1NC(C)=O` showed an IC50 of 16 nM.
In the case of `CC(=O)N[C@@H]1[C@@H](N)CC(C(=O)O)=C[C@H]1OCCC(F)(F)F`, the IC50 was 225 nM.
Work on `CC(=O)N[C@@H]1[C@@H](N)CC(C(=O)O)=C[C@H]1OC1CCCC1` yielded an IC50 of 22 nM.
Molecule `COCO[C@@H]1C=C(C(=O)O)C[C@H](N)[C@H]1NC(C)=O` has an IC50 of 2000 nM.
For `CC[C@H](CCc1ccccc1)O[C@@H]1C=C(C(=O)O)C[C@H](N)[C@H]1NC(C)=O`, the IC50 was 12 nM.
`CC(=O)N[C@@H]1[C@@H](N)CC(C(=O)O)=C[C@H]1OCC(C)C` gave an IC50 of 200 nM.
`CC(=O)N[C@@H]1[C@@H](N)CC(C(=O)O)=C[C@H]1OCCCc1ccc(-c2ccccc2)cc1` showed an IC50 of 89.9 nM.
Molecule `CCC(CC)O[C@@H]1C=C(C(=O)O)C[C@H](NC(=N)N)[C@H]1NC(C)=O` has an IC50 of 0.5 nM.
For `CCCCO[C@@H]1C=C(C(=O)O)C[C@H](N=C(N)N)[C@H]1NC(C)=O`, the IC50 was 3 nM.

Each molecule was assayed on Influenza A virus (assay: microbe, parasite or virus in culture). Conditions: A/WSN/1933(H1N1), MDCK.
With `CCOC(=O)C1=C[C@@H](OC(CC)CC)[C@H](NC(C)=O)[C@@H](N)C1` [OSELTAMIVIR] the pIC50 was 6.24.
With `CCC(CC)[C@H](NC(C)=O)[C@@H]1[C@H](O)[C@@H](C(=O)O)C[C@H]1NC(=N)N` [PERAMIVIR ANHYDROUS] the pIC50 was 5.76.

From ChEMBL document CHEMBL4184164, “Design, synthesis and biological evaluation of novel oseltamivir derivatives as potent neuraminidase inhibitors” (Bioorg Med Chem Lett, 2017)
